Experimental data taken from PubChem BioAssay (NCI).
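Values below derive from 48-hour exposures of cells grown in 96-well plates, with endpoints linearly interpolated between the two concentrations bracketing the appropriate inhibition level. At the GI50, growth is halved. TGI: concentration producing complete growth inhibition.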

Key:
Test in all cases: NCI-60 cell line screen, 48 h
[1] = tested on: HCT-15 colon
[2] = tested on: DU-145 prostate
[3] = tested on: CAKI-1 renal
[4] = tested on: T-47D breast
[5] = tested on: MDA-MB-231 breast
[6] = tested on: CCRF-CEM leukemia
[7] = tested on: 786-0 renal
[8] = tested on: RXF 393 renal
[9] = tested on: A549 NSCLC
[10] = tested on: KM12 colon
[11] = tested on: HCT-116 colon
[12] = tested on: SW-620 colon
[13] = tested on: NCI-H522 lung
[14] = tested on: SF-539 CNS
[15] = tested on: HCC-2998 colon
[16] = tested on: HL-60(TB) leukemia
[17] = tested on: SN12C renal
[18] = tested on: SF-268 CNS
[19] = tested on: UO-31 renal
[20] = tested on: SK-MEL-2 melanoma
[21] = tested on: LOX IMVI melanoma
[22] = tested on: MOLT-4 leukemia
[23] = tested on: SNB-19 CNS
[24] = tested on: U251 CNS
[25] = tested on: EKVX NSCLC
[26] = tested on: SF-295 CNS
[27] = tested on: HS 578T breast
[28] = tested on: NCI-H226 lung
[29] = tested on: TK-10 renal
[30] = tested on: A498 renal
[31] = tested on: RPMI-8226 leukemia
[32] = tested on: MDA-MB-435
[33] = tested on: SR leukemia
[34] = tested on: PC-3 prostate
[35] = tested on: HOP-62 NSCLC
[36] = tested on: MALME-3M melanoma
[37] = tested on: OVCAR-8 ovarian
[38] = tested on: SK-OV-3 ovarian
[39] = tested on: SK-MEL-5 melanoma
[40] = tested on: UACC-62 melanoma
[41] = tested on: ACHN renal
[42] = tested on: IGROV1 ovarian
[43] = tested on: NCI/ADR-RES ovarian
[44] = tested on: NCI-H460 lung
[45] = tested on: BT-549 breast
[46] = tested on: K-562 leukemia
[47] = tested on: SNB-75 CNS
[48] = tested on: OVCAR-3 ovarian
[49] = tested on: M14 melanoma
[50] = tested on: UACC-257 melanoma
[51] = tested on: SK-MEL-28 melanoma
[52] = tested on: HOP-92 NSCLC
[53] = tested on: HT29 colon
[54] = tested on: MCF7 breast
[55] = tested on: OVCAR-4 ovarian
[56] = tested on: COLO 205 colon
[57] = tested on: OVCAR-5 ovarian

O=C(CSc1nc2sc3c(c2c(=O)n1-c1ccc(Cl)cc1)CCCC3)NNC(=O)Nc1ccc(Cl)c(C(F)(F)F)c1
GI50 [1]: 3.59 µM | TGI [1]: 18.6 µM | GI50 [2]: 3.86 µM | TGI [2]: > 100 µM | GI50 [3]: 1.99 µM | TGI [3]: 6.17 µM | GI50 [4]: 1.83 µM | TGI [4]: 4.2 µM | GI50 [5]: 4.45 µM | TGI [5]: 20.5 µM | GI50 [6]: 3.65 µM | TGI [6]: > 100 µM | GI50 [7]: 4.23 µM | TGI [7]: 16 µM | GI50 [8]: 2.58 µM | TGI [8]: 9.32 µM | GI50 [9]: 3.3 µM | TGI [9]: 15.7 µM | GI50 [10]: 3.75 µM | TGI [10]: > 100 µM | GI50 [11]: 1.87 µM | TGI [11]: 3.99 µM | GI50 [12]: 3.16 µM | TGI [12]: 13.2 µM | GI50 [13]: 1.96 µM | TGI [13]: 6.05 µM | GI50 [14]: 6.53 µM | TGI [14]: 21.2 µM | GI50 [15]: 3.04 µM | TGI [15]: 9.42 µM | GI50 [16]: 3.18 µM | TGI [16]: 17.7 µM | GI50 [17]: 3.3 µM | TGI [17]: 12.9 µM | GI50 [18]: 6.21 µM | TGI [18]: > 100 µM | GI50 [19]: 2.85 µM | TGI [19]: 29.5 µM | GI50 [20]: 2.46 µM | TGI [20]: 7.24 µM | GI50 [21]: 1.76 µM | TGI [21]: 3.49 µM | GI50 [22]: 2.74 µM | TGI [22]: 14.1 µM | GI50 [23]: 4.08 µM | TGI [23]: > 100 µM | GI50 [24]: 2.93 µM | TGI [24]: 10.9 µM | GI50 [25]: 2.68 µM | TGI [25]: 8.85 µM | GI50 [26]: 3.11 µM | TGI [26]: 8.87 µM | GI50 [27]: 6.93 µM | TGI [27]: 73.1 µM | GI50 [28]: 2.89 µM | TGI [28]: 11.3 µM | GI50 [29]: 4.3 µM | TGI [29]: 23.6 µM | GI50 [30]: 2.58 µM | TGI [30]: 8.61 µM | GI50 [31]: 2.99 µM | TGI [31]: 17.9 µM | GI50 [32]: 3.67 µM | TGI [32]: 14.6 µM | GI50 [33]: 3.3 µM | TGI [33]: 46.1 µM | GI50 [34]: 2.05 µM | TGI [34]: 6.62 µM | GI50 [35]: 4.3 µM | TGI [35]: 19.1 µM | GI50 [36]: 2.45 µM | TGI [36]: 6.82 µM | GI50 [37]: 3.12 µM | TGI [37]: 11.9 µM | GI50 [38]: 4.66 µM | TGI [38]: 20.4 µM | GI50 [39]: 4.06 µM | TGI [39]: 14.7 µM | GI50 [40]: 2.5 µM | TGI [40]: 10 µM | GI50 [41]: 3.56 µM | TGI [41]: 16.9 µM | GI50 [42]: 4.71 µM | TGI [42]: 91.7 µM | GI50 [43]: 6.57 µM | TGI [43]: 97.3 µM | GI50 [44]: 3.16 µM | TGI [44]: 10.9 µM | GI50 [45]: 3.5 µM | TGI [45]: 14.4 µM | GI50 [46]: 2.51 µM | TGI [46]: > 100 µM | GI50 [47]: 2.01 µM | TGI [47]: 7.88 µM | GI50 [48]: 2.95 µM | TGI [48]: 10.6 µM | GI50 [49]: 3.42 µM | TGI [49]: 14.1 µM | GI50 [50]: 2.94 µM | TGI [50]: 12.6 µM | GI50 [51]: 4.48 µM | TGI [51]: 17.3 µM | GI50 [52]: 1.44 µM | TGI [52]: 3.97 µM | GI50 [53]: 3.05 µM | TGI [53]: 9.54 µM | GI50 [54]: 2.77 µM | TGI [54]: 17.6 µM | GI50 [55]: 1.92 µM | TGI [55]: 4.31 µM | GI50 [56]: 2.05 µM | TGI [56]: 4.7 µM | GI50 [57]: 4.4 µM | TGI [57]: 19.7 µM
